Measurements as given in patent US20180207114A1, “ESTROGEN RELATED RECEPTOR GAMMA (ERRgamma) ENHANCES AND MAINTAINS BROWN FAT THERMOGENIC CAPACITY” (Salk Institute for Biological Studies, priority 2015, published 2018).

Legend:
[1] = target: T1, ERRα (Homo sapiens, UniProt P11474); details: for example in the presence of PGC-1a; cited from earlier work
T1 sequence (P11474 1-423): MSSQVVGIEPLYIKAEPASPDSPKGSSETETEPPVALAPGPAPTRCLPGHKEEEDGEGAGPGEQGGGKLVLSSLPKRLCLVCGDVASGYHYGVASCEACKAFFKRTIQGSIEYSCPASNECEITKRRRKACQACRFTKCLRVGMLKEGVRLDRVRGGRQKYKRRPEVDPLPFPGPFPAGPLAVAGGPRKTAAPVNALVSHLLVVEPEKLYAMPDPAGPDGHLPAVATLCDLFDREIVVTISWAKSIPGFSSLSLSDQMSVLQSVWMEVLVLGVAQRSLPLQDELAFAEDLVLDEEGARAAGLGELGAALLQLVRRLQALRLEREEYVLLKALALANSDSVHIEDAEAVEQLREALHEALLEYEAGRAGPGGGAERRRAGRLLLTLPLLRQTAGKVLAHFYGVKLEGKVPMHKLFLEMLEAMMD

[2] = target: T2, ERRβ (Homo sapiens, UniProt O95718); details: for example in the presence of PGC-1a; cited from earlier work
T2 sequence (O95718 1-433): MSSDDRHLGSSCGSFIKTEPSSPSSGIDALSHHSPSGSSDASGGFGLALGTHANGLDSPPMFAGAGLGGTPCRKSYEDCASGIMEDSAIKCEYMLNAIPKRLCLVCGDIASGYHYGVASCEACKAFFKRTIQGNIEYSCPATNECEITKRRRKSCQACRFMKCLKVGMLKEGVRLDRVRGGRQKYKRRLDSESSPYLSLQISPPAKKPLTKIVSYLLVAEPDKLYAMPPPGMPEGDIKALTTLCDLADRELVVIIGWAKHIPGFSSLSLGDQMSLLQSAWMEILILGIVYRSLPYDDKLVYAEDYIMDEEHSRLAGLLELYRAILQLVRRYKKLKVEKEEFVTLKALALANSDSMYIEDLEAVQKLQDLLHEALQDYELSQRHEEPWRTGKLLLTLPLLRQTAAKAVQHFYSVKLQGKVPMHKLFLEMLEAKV

[3] = target: T3, ERRγ (Homo sapiens, UniProt P62508); details: for example in the presence of PGC-1a; cited from earlier work
T3 sequence (P62508 1-458): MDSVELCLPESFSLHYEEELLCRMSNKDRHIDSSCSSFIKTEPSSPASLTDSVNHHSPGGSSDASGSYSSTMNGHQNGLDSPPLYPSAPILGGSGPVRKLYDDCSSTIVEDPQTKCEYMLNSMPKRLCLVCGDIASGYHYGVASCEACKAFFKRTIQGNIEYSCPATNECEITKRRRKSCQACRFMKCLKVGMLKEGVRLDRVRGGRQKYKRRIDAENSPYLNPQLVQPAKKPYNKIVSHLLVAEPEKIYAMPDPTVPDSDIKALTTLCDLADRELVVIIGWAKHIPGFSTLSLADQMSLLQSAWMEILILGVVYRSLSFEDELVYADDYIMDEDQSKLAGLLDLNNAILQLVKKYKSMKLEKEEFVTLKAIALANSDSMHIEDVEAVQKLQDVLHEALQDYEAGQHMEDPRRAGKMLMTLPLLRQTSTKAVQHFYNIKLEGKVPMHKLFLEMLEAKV

[4] = target: T3, ERRγ; details: cited from earlier work
[5] = system: control flox/flox (WT) and ERRγ ASKO (KO) mice; experiment: Oxygen consumption (VO2, CLAMS) after intraperitoneal injection of beta adrenergic agonist in mice; format: in vivo, mouse
Description: ERRγ flox/flox mice were crossed with adiponectin-Cre mice (Jackson Laboratory) to generate ERRγ-ASKO mice. ERRγ-ASKO mice and flox/flox control littermates received a standard chow diet (MI laboratory rodent diet 5001, Harlan Teklad) or high fat (60%) diet (F3282, Bio-Serv) and water ad libitum. All mice used for studies were male unless otherwise noted. Mice were housed at thermoneutrality (30° C.) unless otherwise indicated. PPARα null mice were purchased from Jackson laboratory.
Oxygen consumption (VO2) was measured using the Comprehensive Laboratory Animal Monitoring System (CLAMS; Columbus, Ohio). Data were normalized to body weights. Body temperatures were assessed using a RET-3 rectal probe for mice (Physitemp). CL316243 (Sigma) and norepinephrine were intraperitoneally injected into mice at 1 mg/kg body weight.

[6] = system: differentiated PAZ-6 brown adipocytes; experiment: Seahorse XF oxygen consumption assay in differentiated PAZ-6 brown adipocytes; format: cell-based, human
Description: PAZ-6 human brown adipocytes were differentiated as previously described (18). Human adipose derived stem cells were cultured as previously described.
Bioenergetic profiles were analyzed using a XF24XF analyzer (Seahorse Bioscience) and the XF Palmitate-BSA FAO Substrate (Seahorse Bioscience).

Structure (SMILES) | activation of ERRα [1] | activation of ERRβ [2] | activation of ERRγ [3] | other results
CCc1ccc(C=NNC(=O)c2ccc(O)cc2)s1 [DY164] | activate | activate | activate | 
O=C(NN=Cc1ccccc1)c1ccc(O)cc1 [DY162] | activate | activate | activate | 
Nc1ccc(C(=O)N/N=C/c2ccc(/N=N/c3ccccc3)cc2)cn1 [E6] |  |  |  | selectivity for ERRγ over ERRα and β [4]: selective for ERRγ but not ERRα and β
Cc1cccc(C=NNC(=O)c2ccc(O)cc2)c1 [DY159] | activate | activate | activate | 
C[C@H](Cc1ccc2c(c1)OC(C(=O)[O-])(C(=O)[O-])O2)NC[C@H](O)c1cccc(Cl)c1.[Na+].[Na+] [CL316243] |  |  |  | response (VO2, RER) to injection ([5]; ERRγ-ASKO female mice at thermoneutrality, 1 mg/kg BW intraperitoneal): blunted
CC(C)c1ccc(/C=N/NC(=O)c2ccc(O)cc2)cc1 [GSK4716] |  |  |  | Increase in oxygen consumption rate in the presence or absence of palmitate ([6]; differentiated PAZ-6, 10 μM overnight, with vs without palmitate (FIG. 5M)): only occurred in the presence of fatty acids; proton leak or uncoupling ([6]; differentiated PAZ-6 treated overnight with 10 μM vs DMSO vehicle): higher; Oxygen consumption rate ([6]; differentiated PAZ-6 treated overnight with 10 μM vs DMSO vehicle, in the presence of fatty acids (palmitate)): higher
Cc1ccc(/C=N/NC(=O)c2ccc(O)cc2)cc1 [DY163] | activate | activate | activate | 
NC[C@H](O)c1ccc(O)c(O)c1 [NE, norepinephrine] |  |  |  | metabolic rate (VO2) response upon injection ([5]; ERRγ-ASKO mice at thermoneutrality, 1 mg/kg intraperitoneal): severely blunted; metabolic rate (oxygen consumption, VO2) upon injection ([5]; control flox/flox mice at thermoneutrality, 1 mg/kg intraperitoneal): increased
